For the assay, the system named is PDE IV. Put plainly: Inhibition of PDE IV isolated from canine tracheal muscle (cAMP metabolism). It is filed as biochemical. To be noted: canine trachealis PDE IV; for IC50: 1 μM 3H-cAMP, 10 μM CI-930, 30° C., pH 7.8, reduction expressed relative to 10 μM rolipram; for inhibition of PDE IV (percentage): at 10^-5 (concentration unit not given), percentage of the reduction induced by 10 μM rolipram. On the procedure: The following assay is employed to assess the ability of the compound of the invention to inhibit PDE IV. A solution containing PDE IV is prepared from canine tracheal muscle as follows: The dog is euthanized with an overdose of euthanasia while under anesthesia induced by a 33 mg/kg IV bolus of Nembutal. The trachealis muscle is removed, cleaned of connective tissue, and minced thoroughly. Three to four grams of tissue is then homogenized in Trim-HCl buffer (pH 7.8) using a Polytron. The homogenate is then centrifuged at 25,000×g (4° C.) for 30 minutes. The supernatant is decanted and filtered through four layers of gauze, and applied to a 40 cm×2 cm DEAE-Sepharose column that is equilibrated with Trim-HCl buffer (pH 7.8). The column is then washed with an additional 240 mL of buffer to remove unbound proteins. […] Each fraction is assayed for cAMP- and cGMP- metabolizing PDE activity. Fractions eluting at approximately 0.6 M Na-acetate, and containing CAMP but not CGMP metabolic activity are pooled and used as a PDE stock solution for assaying PDE IV inhibitory activity. […] CI-930 is included as an inhibitor of the cyclic GMP-sensitive, cyclic AMP-selectivePDE (PDE III) that is also present in the PDE IV stock solution when prepared as described above.

Experimental findings from patent US5250700A, “Phenyl pyrazolidinones as bronchodilators and anti-inflammatory agents” (American Home Products Corporation, priority 1992, dated 1993) are described below.

Each structure is given as a SMILES string. Structures can show the parent of a compound that is named as a salt.

Compound `COc1ccc(C2CC(=O)N(C(=O)N[C@@H](C)c3cccc4ccccc34)N2C)cc1OC1CCCC1` (single isomer, unassigned) [13 A] displayed an IC50 of 12 nM. In other words, the double-digit nanomolar range. Still for that read-out and setting: under `COc1ccc(C2CC(=O)N(C(=O)N[C@@H](C)c3cccc4ccccc34)N2C)cc1OC1CCCC1` (single isomer, unassigned) [13 B] stands 18 nM; under `COc1ccc(C2CC(=O)NN2)cc1OC1CCCC1` (centres unmarked) [Example 1, 5-[3-(Cyclopentyloxy)-4-methoxyphenyl]-3-pyrazolidinone], 340 nM; under `COc1ccc(C2CC(=O)NN2C)cc1OC1CCCC1` (centres unmarked) [Example 2, 5-[3--(Cyclopentyloxy)-4-methoxyphenyl]-1-methyl-3-pyrazolidinone], 680 nM.

Compound `COc1ccc(C2CC(=O)N(C)N2C)cc1OC1CCCC1` (centres unmarked) [Example 3, 5-[3-(Cyclopentyloxy)-4-methoxyphenyl]-1,2-dimethyl-3-pyrazolidinone, hydriodide] returned an IC50 of 820 nM. For `COC(=O)CN1NC(=O)CC1c1ccc(OC)c(OC2CCCC2)c1` (centres unmarked) [Example 4, 5-[3-(Cyclopentyloxy)-4-methoxylphenyl]-3-oxo-1-pyrazolidineacetic acid methyl ester], the IC50 stood at 440 nM. As to `COc1ccc(C2CC(=O)NN2C(N)=O)cc1OC1CCCC1` (centres unmarked) [Example 5, 5-[3-(Cyclopentyloxy)-4-methoxyphenyl]-3-oxo-1-pyrazolidinecarboxamide], the “inhibition of PDE IV (percentage)” value is on record as 39%. Still for that read-out and setting: under `COC(=O)N1NC(=O)CC1c1ccc(OC)c(OC2CCCC2)c1` (centres unmarked) [Example 6, 5-[3-(Cyclopentyloxy)-4-methoxyphenyl]-3-oxo-1-pyrazolidinecarboxylic acid methyl ester] stands 52%; under `COc1ccc(C2CC(=O)NN2CC(=O)O)cc1OC1CCCC1` (centres unmarked) [Example 7], 39%.

`CNC(=O)N1C(=O)CC(c2ccc(OC)c(OC3CCCC3)c2)N1C` (centres unmarked) [Example 9, 3-F3-(Cyclopentyloxy)-4-methoxyphenyl]-2-methyl-5-oxo-N-methyl-1-pyrazolidinecarboxamide, hemihidrate] displayed a 50% inhibitory concentration (IC50) of 460 nM. Still for that read-out and setting: under `COc1ccc(-c2cc(=O)[nH]n2C)cc1OC1CCCC1` [Example 10, 5-[3-(cyclopentyloxy)-4-methoxyphenyl]-1,2-dihydro-1-methyl-3H-pyrazol-3-one] stands 310 nM; under `COc1ccc(-c2cc(=O)n(C(N)=O)n2C)cc1OC1CCCC1` [Example 11, 3-[3-(cyclopentyloxy)-4-methoxylphenyl]-2.5-dihydro-2-methyl-5-oxo-1H-pyrazole-1-carboxamide], 380 nM; under `COc1ccc(-c2cc(=O)n(C(=O)NCc3ccccn3)n2C)cc1OC1CCCC1` [Example 12, 3-[3-(cyclopentyloxy)-4-methoxyphenyl]-2.5-dihydro-2-methyl-5-oxo-N-(2-pyridinylmethyl)-1H-pyrazole-1-carboxamide], 420 nM. Same read-out and setting: next, `CCCCNC(=O)N1C(=O)CC(c2ccc(OC)c(OC3CCCC3)c2)N1C` (centres unmarked) [Example 14, N-butyl-3-f3-(cyclopentyloxy)-4-methoxyphenyl]-2-methyl-5-oxo-1-pyrazolidinecarboxamide hydrochloride]: 260 nM; `CCNC(=O)N1C(=O)CC(c2ccc(OC)c(OC3CCCC3)c2)N1C` (centres unmarked) [Example 15, 3-[3-(cyclopentyloxy)-4-methoxylphenyl]-N-ethyl-2-methyl-5-oxo-1-pyrazolidinecarboxamide hydrochloride, hydrate]: 49 nM. On to `COc1ccc(C2CC(=O)N(C(=O)Nc3ccccc3)N2C)cc1OC1CCCC1` (centres unmarked) [Example 16, 3-[3-(cyclopentyloxy)-4-methoxyphenyl-2-methyl-5-oxo-N-phenyl-1-pyrazolidinecarboxamide hydrochloride], for which the “inhibition of PDE IV (percentage)” value is reported as 48%.

Regarding `COc1ccc(C2CC(=O)N(C(=O)NCc3ccccc3)N2C)cc1OC1CCCC1` (centres unmarked) [Example 17, 3-[3-(cyclopentyloxy)-4-methoxyphenyl]-2-methyl-5-oxo-N-(phenylmethyl)-1-pyrazolidinecarboxamide hydrochloride], the IC50 came to 36 nM.
